This is an account of results in patent US20250206732A1, “COMPOUNDS AND METHODS FOR THE TARGETED DEGRADATION OF KRAS” (Arvinas Operations, Inc., priority 2022, published 2025).

In general, Dmax refers to the greatest extent of degradation seen. As usually defined, the DC50 is the midpoint of the concentration-degradation curve.

The target in this assay is T1, AsPC-1 HiBiT-KRASG12D (Homo sapiens, UniProt P01116, G12D).
T1 construct: insert the HiBiT tag onto the N-terminus of one or more of the endogenous KRAS alleles; endogenous in cells; host or cells: AsPC-1 (ATCC CRL-1682), CRISPR-Cas9 knock-in clone, one tagged allele
As to the kind of experiment: HiBiT degradation assay (G12D), AsPC-1 HiBiT-KRASG12D cells. As to conditions: 24 hours treatment; for Dmax: ASPC1, AsPC-1 HiBiT-KRASG12D cells, maximum degradation observed; for DC50: AsPC-1 HiBiT-KRASG12D cells, HiBiT luminescence. In kind it is cell-based. The procedure, abridged: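 Luminescence read-out of HiBiT-tagged endogenous KRASG12D in AsPC-1 cells after 24 h compound exposure at 37° C; lytic Nano-Glo HiBiT detection, 45 min at room temperature. A parallel alamar blue read (4 h) checked viability, normalized to DMSO-only controls.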
(HiBiT is a short tag that completes a luciferase, so light tracks the accessible tagged protein.)

T1 sequence (P01116 1-188 isoform P01116-2 G12D): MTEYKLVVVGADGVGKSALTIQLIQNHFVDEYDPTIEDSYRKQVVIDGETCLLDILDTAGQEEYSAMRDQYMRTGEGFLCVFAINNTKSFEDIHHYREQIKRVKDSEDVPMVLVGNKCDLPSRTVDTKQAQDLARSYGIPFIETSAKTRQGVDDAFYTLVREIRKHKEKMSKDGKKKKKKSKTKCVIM

Turning to `CCc1cccc2cc(O)cc(-c3ncc4c(N5C[C@H]6CC[C@@H](C5)N6)nc(OC[C@@H]5CC[C@@H](COC(=O)N6CCC(Oc7cc([C@@H](C(=O)N8C[C@H](O)C[C@H]8C(=O)N[C@@H](C)c8ccc(-c9scnc9C)cc8)C(C)C)on7)CC6)N5C)nc4c3F)c12` [Compound 255, ((2S,5S)-5-(((4-((1R,5S)-3,8-diazabicyclo[3.2.1]octan-3-yl)-7-(8-ethyl-3-hydroxynaphthalen-1-yl)-8-fluoropyrido[4,3-d]pyrimidin-2-yl)oxy)methyl)-1-methylpyrrolidin-2-yl)methyl 4-((5-((S)-1-((2S,4R)-4-hydroxy-2-(((S)-1-(4-(4-methylthiazol-5-yl)phenyl)ethyl)carbamoyl)pyrrolidin-1-yl)-3-methyl-1-oxobutan-2-yl)isoxazol-3-yl)oxy)piperidine-1-carboxylate], the Dmax was 20 to 60% and the half-maximal degradation concentration (DC50) lay within 0.6 to 1 µM.

The molecule `C#Cc1c(F)ccc2cc(O)cc(-c3ncc4c(N5CC6CCC(C5)N6)nc(OCCN5CCC(F)(COc6cc([C@@H](C(=O)N7C[C@H](O)C[C@H]7C(=O)N[C@@H](C)c7ccc(-c8scnc8C)cc7)C(C)C)on6)CC5)nc4c3F)c12` [Compound 154, (2S,4R)-1-[(2S)-2-{3-[(1-{2-[(4-{3,8-diazabicyclo[3.2.1]octan-3-yl}-7-(8-ethynyl-7-fluoro-3-hydroxynaphthalen-1-yl)-8-fluoropyrido[4,3-d]pyrimidin-2-yl)oxy]ethyl}-4-fluoropiperidin-4-yl)methoxy]-1,2-oxazol-5-yl}-3-methylbutanoyl]-4-hydroxy-N-[(1S)-1-[4-(4-methyl-1,3-thiazol-5-yl)phenyl]ethyl]pyrrolidine-2-carboxamide] registered a maximal degradation (Dmax) of 80 to 100% and a DC50 below 0.6 µM.

In the case of `C#Cc1c(F)ccc2cc(O)cc(-c3ncc4c(N5CC6CCC(C5)N6)nc(OC[C@]56CCCN5[C@H](COC(=O)N5CC(Oc7cc([C@@H](C(=O)N8C[C@H](O)C[C@H]8C(=O)N[C@@H](C)c8ccc(-c9scnc9C)cc8)C(C)C)on7)C5)CC6)nc4c3F)c12` [Compound 303], the greatest degradation seen (Dmax) was in the range of 60 to 80% and the DC50 was below 0.6 µM.

The molecule `C#Cc1c(F)ccc2cc(O)cc(-c3ncc4c(N5CC6CCC(C5)N6)nc(OCCN5CCC6(CC5)CN(c5cc(C(C(=O)N7C[C@H](O)C[C@H]7C(=O)N[C@@H](C)c7ccc(-c8ccnn8C)cc7)C(C)C)on5)C6)nc4c3F)c12` (single isomer, unassigned) [Compound 83, (2S,4R)-1-[(2R*)-2-[3-(7-{2-[(4-{3,8-diazabicyclo[3.2.1]octan-3-yl}-7-(8-ethynyl-7-fluoro-3-hydroxynaphthalen-1-yl)-8-fluoropyrido[4,3-d]pyrimidin-2-yl)oxy]ethyl}-2,7-diazaspiro[3.5]nonan-2-yl)-1,2-oxazol-5-yl]-3-methylbutanoyl]-4-hydroxy-N-[(1S)-1-[4-(1-methyl-1H-pyrazol-5-yl)phenyl]ethyl]pyrrolidine-2-carboxamide] had a maximal degradation (Dmax) of 80 to 100% and a DC50 below 0.6 µM.

As for `C#Cc1c(F)ccc2cc(O)cc(-c3ncc4c(N5CC6CCC(C5)N6)nc(OCCN5CCC(F)(CN6CCN(c7cc([C@@H](C(=O)N8C[C@H](O)C[C@H]8C(=O)N[C@@H](C)c8ccc(-c9ccnn9C)cc8)C(C)C)on7)CC6)CC5)nc4c3F)c12` [Compound 171, (2S,4R)-1-[(2S)-2-(3-{4-[(1-{2-[(4-{3,8-diazabicyclo[3.2.1]octan-3-yl}-7-(8-ethynyl-7-fluoro-3-hydroxynaphthalen-1-yl)-8-fluoropyrido[4,3-d]pyrimidin-2-yl)oxy]ethyl}-4-fluoropiperidin-4-yl)methyl]piperazin-1-yl}-1,2-oxazol-5-yl)-3-methylbutanoyl]-4-hydroxy-N-[(1S)-1-[4-(1-methyl-1H-pyrazol-5-yl)phenyl]ethyl]pyrrolidine-2-carboxamide], the maximal degradation (Dmax) fell in the range of 20 to 60% and the DC50 lay in the range of 1 to 3 µM.

For `CCc1cccc2cc(O)cc(-c3ncc4c(N5CC6CCC(C5)N6)nc(OC[C@]56CCCN5[C@H](COC(=O)N5CCN(c7cc([C@@H](C(=O)N8C[C@H](O)C[C@H]8C(=O)N[C@@H](C)c8ccc(-c9scnc9C)cc8)C(C)C)on7)[C@H](C)C5)CC6)nc4c3F)c12` [Compound 131, [(3S,7aR)-7a-{[(4-{3,8-diazabicyclo[3.2.1]octan-3-yl}-7-(8-ethyl-3-hydroxynaphthalen-1-yl)-8-fluoropyrido[4,3-d]pyrimidin-2-yl)oxy]methyl}-hexahydro-1H-pyrrolizin-3-yl]methyl (3R)-4-{5-[(2S)-1-[(2S,4R)-4-hydroxy-2-{[(1S)-1-[4-(4-methyl-1,3-thiazol-5-yl)phenyl]ethyl]carbamoyl}pyrrolidin-1-yl]-3-methyl-1-oxobutan-2-yl]-1,2-oxazol-3-yl}-3-methylpiperazine-1-carboxylate], the Dmax is below 20% and the DC50 was below 0.6 µM.

For the molecule `CCc1cccc2cc(O)cc(-c3ncc4c(N5CC6CCC(C5)N6)nc(OCCN5CC[C@@H]6CN(c7cc([C@@H](C(=O)N8C[C@H](O)C[C@H]8C(=O)N[C@@H](C)c8ccc(-c9scnc9C)cc8)C(C)C)on7)C[C@@H]6C5)nc4c3F)c12` (relative stereo) [Compound 72, (2S,4R)-1-[(2R*)-2-{3-[(3aR**,7aR***)-5-{2-[(4-{3,8-diazabicyclo[3.2.1]octan-3-yl}-7-(8-ethyl-3-hydroxynaphthalen-1-yl)-8-fluoropyrido[4,3-d]pyrimidin-2-yl)oxy]ethyl}-octahydro-1H-pyrrolo[3,4-c]pyridin-2-yl]-1,2-oxazol-5-yl}-3-methylbutanoyl]-4-hydroxy-N-[(1S)-1-[4-(4-methyl-1,3-thiazol-5-yl)phenyl]ethyl]pyrrolidine-2-carboxamide], the Dmax is below 20% and the half-maximal degradation concentration (DC50) was above 3 µM.

In turn, `CCc1cccc2cccc(-c3ncc4c(N5CC6CCC(C5)N6)nc(OC[C@]56CCCN5[C@H](COC(=O)N5CC(Oc7cc([C@H](C(=O)N8C[C@H](O)C[C@H]8C(=O)N[C@@H](C)c8ccc(-c9scnc9C)cc8)C(C)C)on7)C5)CC6)nc4c3F)c12` [Compound 225] registered a Dmax of 80 to 100% and a half-maximal degradation concentration (DC50) below 0.6 µM.

On to `CCc1cccc2cc(O)cc(-c3ncc4c(N5CC6CCC(C5)N6)nc(OC[C@]56CCCN5[C@H](COC(=O)N5CCN(c7cc([C@@H](C(=O)N8C[C@H](O)C[C@H]8C(=O)N[C@@H](C)c8ccc(-c9scnc9C)cc8)C(C)C)on7)CC5)CC6)nc4c3F)c12` [Compound 87, [(3S,7aR)-7a-{[(4-{3,8-diazabicyclo[3.2.1]octan-3-yl}-7-(8-ethyl-3-hydroxynaphthalen-1-yl)-8-fluoropyrido[4,3-d]pyrimidin-2-yl)oxy]methyl}-hexahydro-1H-pyrrolizin-3-yl]methyl 4-{5-[(2S)-1-[(2S,4R)-4-hydroxy-2-{[(1S)-1-[4-(4-methyl-1,3-thiazol-5-yl)phenyl]ethyl]carbamoyl}pyrrolidin-1-yl]-3-methyl-1-oxobutan-2-yl]-1,2-oxazol-3-yl}piperazine-1-carboxylate], for which the Dmax was in the range of 20 to 60% and the DC50 was in the range of 0.6 to 1 µM.

`CCc1cccc2cc(O)cc(-c3ncc4c(N5C[C@H]6CC[C@@H](C5)N6)nc(OC[C@@H]5CC[C@@H](COC(=O)N6CC7(C6)CN(c6cc([C@H](C(=O)N8C[C@H](O)C[C@H]8C(=O)N[C@@H](C)c8ccc(-c9scnc9C)cc8)C(C)C)on6)C7)N5C)nc4c3F)c12` [Compound 256, ((2S,5S)-5-(((4-((1R,5S)-3,8-diazabicyclo[3.2.1]octan-3-yl)-7-(8-ethyl-3-hydroxynaphthalen-1-yl)-8-fluoropyrido[4,3-d]pyrimidin-2-yl)oxy)methyl)-1-methylpyrrolidin-2-yl)methyl 6-(5-((R)-1-((2S,4R)-4-hydroxy-2-(((S)-1-(4-(4-methylthiazol-5-yl)phenyl)ethyl)carbamoyl)pyrrolidin-1-yl)-3-methyl-1-oxobutan-2-yl)isoxazol-3-yl)-2,6-diazaspiro[3.3]heptane-2-carboxylate] returned a Dmax of 80 to 100% and a 50% degradation concentration (DC50) below 0.6 µM.

The molecule `Cc1ncsc1-c1ccc([C@H](C)NC(=O)[C@@H]2C[C@@H](O)CN2C(=O)[C@@H](c2cc(OC3CN(C(=O)OC[C@@H]4CC[C@@]5(COc6nc(N7CC8CCC(C7)N8)c7cnc(-c8cc(O)cc(Cl)c8C8CC8)c(F)c7n6)CCCN45)C3)no2)C(C)C)cc1` [Compound 306] gave a Dmax of 80 to 100% and a half-maximal degradation concentration (DC50) below 0.6 µM.

Consider `CCc1cccc2cc(O)cc(-c3ncc4c(N5CC6CCC(C5)N6)nc(OCCN5CCC6(CC5)CN(c5cc([C@H](C(=O)N7C[C@H](O)C[C@H]7C(=O)NCc7ccc(-c8scnc8C)cc7)C(C)C)on5)C6)nc4c3F)c12` (relative stereo) [Compound 98, (2S,4R)-1-[(2R*)-2-[3-(7-{2-[(4-{3,8-diazabicyclo[3.2.1]octan-3-yl}-7-(8-ethyl-3-hydroxynaphthalen-1-yl)-8-fluoropyrido[4,3-d]pyrimidin-2-yl)oxy]ethyl}-2,7-diazaspiro[3.5]nonan-2-yl)-1,2-oxazol-5-yl]-3-methylbutanoyl]-4-hydroxy-N-{[4-(4-methyl-1,3-thiazol-5-yl)phenyl]methyl}pyrrolidine-2-carboxamide], for which the Dmax fell in the range of 80 to 100% and the DC50 is below 0.6 µM.
